System: human PCSK9
Test: Cell Free PCSK9 Assay (PCSK9-luciferase mRNA translation in HeLa lysate)
Format: biochemical
Details: PCSK9-luciferase RNA, 30° C. for 45 minutes, top concentration 100 μM
Method: As defined herein inhibition of translation of PCSK9 mRNA to PCSK9 protein is determined by the “Cell Free PCSK9 Assay” provided herein in the specification. This “Cell Free PCSK9 Assay” is specific to the production of PCSK9 protein from PCSK9 mRNA and therefore detects inhibitors of this translational process rather than other mechanisms by which PCSK9 protein may be reduced.
In order to eliminate the permeability barrier inherent to the WT7 cell-based assays a cell-free system was also established to assess compound activitiy. A sequence containing the full length human PCSK9 (NCBI reference identifier, NM_174936.3, where coding sequence start annotated at position 363) along with 84 additional 3′ nucleotides, comprising a V5 tag and polylinker followed by an in frame modified firefly luciferase reporter (corresponding to nucleotide positions 283-1929 of pGL3, GenBank reference identifier JN542721.1) was cloned into the pT7CFE1 expression vector (ThermoScientific). The construct was then in-vitro transcribed using the MEGAscript T7 Kit (Life Technologies) and RNA subsequently purified incorporating the MEGAclear Kit (Life Technologies) according to manufacturer's protocols. HeLa cell lysates were prepared following the protocols described by Mikami (reference is Cell-Free Protein Synthesis Systems with Extracts from Cultured Human Cells, S. Mikami, T. Kobayashi and H. Imataka; from Methods in Molecular Biology, vol. 607, pages 43-52, Y. Endo et al. (eds.), Humana Press, 2010) with the following modifications. Cells were grown in a 20 L volume of CD293 medium (Gibco 11765-054) with Glutamax increased to 4 mM, penicillin at 100 U/mL and other additions as previously described by Mikami. Growth was in a 50 L wavebag at a rocker speed of 25 rpm and angle 6.1 with 5% CO2 and 0.2 LPM flow rate with cells harvested at a density of 2-2.5e6/mL. Lysates additionally contained 1 tablet of Roche cOmplete-EDTA protease inhibitors per 50 mL with tris(2-carboxyethyl)phosphine (Biovectra) substituted for dithiothreitol, and were clarified by an additional final centrifugation at 10,000 rpm in a Sorvall SS34 rotor at 4° C. for 10 minutes. Compound screening was performed in 384-well plates in an eleven point, 0.5 log dilution format at a top test compound concentration of 100 μM in a final volume of 0.5% DMSO. In additional to these test compound conditions each screening plate also included wells that contained 100 μM of compound example 16 (as depicted in WO2014170786; N-(3-chloropyridin-2-yl)-N-[(3R)-piperidin-3-yl]-4-(3H-[1,2,3]triazolo[4,5-b]pyridin-3-yl)benzamide) as a positive assay control defined as high percent effect, HPE, as well as wells containing media in 0.5% DMSO as a negative treatment control defined as zero percent effect, ZPE. Compounds were incubated at 30° C. for 45 minutes in a solution containing 0.1 μg of purified, in-vitro transcribed RNA together with the cell-free reaction mixture (consisting of 1.6 mM Mg and 112 mM K salts, 4.6 mM tris(2-carboxyethyl)phosphine (Biovectra), 5.0 μL HeLa lysate, 0.2 μL RNAsin (Promega) and 1.0 μL energy mix (containing 1.25 mM ATP (Sigma), 0.12 mM GTP (Sigma), 20 mM creatine phosphate (Santa Cruz), 60 μg/mL creatine phosphokinase (Sigma), 90 μg/mL tRNA (Sigma) and the 20 amino acids (Life Technologies) at final concentrations described by Mikami) and brought up in water to a final volume of 10 μL in water. Upon assay completion 1 μL from each reaction solution was removed and transferred to a second 384-well Optiplate (Perkin Elmer) containing 24 μL of SteadyGlo (Promega) and signal intensity was measured on the Envision (Perkin Elmer) using the enhanced luminescence protocol. To determine compound IC50 the data for HPE and ZPE control wells were first analyzed and the mean, standard deviation and Z prime calculated for each plate. The test compound data were converted into percent effect, using the ZPE and HPE controls as 0% and 100% activity, respectively, applying Equation 1 above. […]

SMILES	IC50 [µM]
CCOC(=O)O[C@@H](C)n1nnnc1-c1c(-c2ccc(C(=O)N(c3ncccc3C)[C@@H]3CCCNC3)cc2F)cnn1C [Example 8, ethyl (S)-1-{5-[4-(4-{(3-methylpyridin-2-yl)[(3R)-piperidin-3-yl]carbamoyl}-2-fluorophenyl)-1-methyl-1H-pyrazol-5-yl]-1H-tetrazol-1-yl}ethyl carbonate]	11
CCOC(=O)O[C@@H](C)n1nnnc1-c1c(-c2ccc(C(=O)N(c3ncccc3C)[C@@H]3CCCNC3)cc2)cnn1C [Example 5a, ethyl (S)-1-{5-[1-methyl-4-(4-{(3-methylpyridin-2-yl)[(3R)-piperidin-3-yl]carbamoyl}phenyl)-1H-pyrazol-5-yl]-1H-tetrazol-1-yl}ethyl carbonate]	8.2
CCOC(=O)O[C@@H](C)n1nnnc1-c1c(-c2ccc(C(=O)N(c3ncccc3Cl)[C@@H]3CCCNC3)nc2)cnn1C [Example 10, ethyl (S)-1-{5-[4-(6-{(3-chloropyridin-2-yl)[(3R)-piperidin-3-yl]carbamoyl}pyridin-3-yl)-1-methyl-1H-pyrazol-5-yl]-1H-tetrazol-1-yl}ethyl carbonate]	> 74
CCOC(=O)O[C@@H](C)n1nnnc1-c1c(-c2ccc(C(=O)N(c3ncccc3C)[C@@H]3CCCNC3)nc2)cnn1C [Example 9, ethyl (S)-1-{5-[1-methyl-4-(6-{(3-methylpyridin-2-yl)[(3R)-piperidin-3-yl]carbamoyl}pyridin-3-yl)-1H-pyrazol-5-yl]-1H-tetrazol-1-yl}ethyl carbonate]	58.9
CCOC(=O)O[C@@H](C)n1nnnc1-c1c(-c2ccc(C(=O)N(c3ncccc3Cl)[C@@H]3CCCNC3)cc2)cnn1C [Example 6, ethyl (S)-1-{5-[1-methyl-4-(4-{(3-chloropyridin-2-yl)[(3R)-piperidin-3-yl]carbamoyl}phenyl)-1H-pyrazol-5-yl]-1H-tetrazol-1-yl}ethyl carbonate]	10.3
CCOC(=O)O[C@H](C)n1nnnc1-c1c(-c2ccc(C(=O)N(c3ncccc3C)[C@@H]3CCCNC3)cc2)cnn1C [Example 5b, ethyl (R)-1-{5-[1-methyl-4-(4-{(3-methylpyridin-2-yl)[(3R)-piperidin-3-yl]carbamoyl}phenyl)-1H-pyrazol-5-yl]-1H-tetrazol-1-yl}ethyl carbonate]	6.4
Cn1ncc(-c2ccc(C(=O)N(c3ncccc3Cl)[C@@H]3CCCNC3)cc2F)c1-c1nn[nH]n1 [Example 3, N-(3-chloropyridin-2-yl)-3-fluoro-4-[1-methyl-5-(2H-tetrazol-5-yl)-1H-pyrazol-4-yl]-N-[(3R)-piperidin-3-yl]benzamide]	2.8
CCOC(=O)O[C@@H](C)n1nnnc1-c1c(-c2ccc(C(=O)N(c3ncccc3Cl)[C@@H]3CCCNC3)cc2F)cnn1C [Example 7, ethyl (S)-1-{5-[4-(4-{(3-chloropyridin-2-yl)[(3R)-piperidin-3-yl]carbamoyl}-2-fluorophenyl)-1-methyl-1H-pyrazol-5-yl]-1H-tetrazol-1-yl}ethyl carbonate]	13.4

Reference: patent US20160102074A1, “SUBSTITUTED AMIDE COMPOUNDS” (PFIZER INC., priority 2014, published 2016)
